Where a name gives a salt, the structure may show the parent alone.
What was measured:
human 5-HT6 receptor = target: T1, human 5-HT6 receptor (Homo sapiens, UniProt P50406); assay: Binding affinity for the 5-HT6 receptor (3H-LSD displacement, membranes of recombinant cells); details: 3H-LSD radioligand, 60 minute incubation at 37 °C
T1 construct: expressed in transfected cells; host or cells: recombinant cells
Experimental: All of the compounds of the invention were evaluated using cell types receptive specifically to the 5-HT6 receptor (for cloning and characterization of the human 5-HT6 receptor see Kohen, et al. J. Neurochemistry, 66, 1996: 47-56). […] After a 60 minute incubation at 37 °C, the incubation was terminated by vacuum filtration. The filters were washed with buffer and the filters were counted for radioactivity using liquid scintillation spectrometry. The affinity of the test compound for the 5-HT6 receptor was determined by computer-assisted analysis of the data and determining the amount of the compound necessary to inhibit 50% of the binding of the radioligand to the receptor. Concentrations ranging from 10^-11 M to 10^-5 M of the test compound were evaluated.

human 5-HT2C = target: T2, human 5-HT2C (Homo sapiens, UniProt P28335); assay: Binding selectivity for 5-HT6 relative to the 5-HT2C receptor; details: selectivity 5-HT6 over 5-HT2C
T2 sequence (P28335 33-458): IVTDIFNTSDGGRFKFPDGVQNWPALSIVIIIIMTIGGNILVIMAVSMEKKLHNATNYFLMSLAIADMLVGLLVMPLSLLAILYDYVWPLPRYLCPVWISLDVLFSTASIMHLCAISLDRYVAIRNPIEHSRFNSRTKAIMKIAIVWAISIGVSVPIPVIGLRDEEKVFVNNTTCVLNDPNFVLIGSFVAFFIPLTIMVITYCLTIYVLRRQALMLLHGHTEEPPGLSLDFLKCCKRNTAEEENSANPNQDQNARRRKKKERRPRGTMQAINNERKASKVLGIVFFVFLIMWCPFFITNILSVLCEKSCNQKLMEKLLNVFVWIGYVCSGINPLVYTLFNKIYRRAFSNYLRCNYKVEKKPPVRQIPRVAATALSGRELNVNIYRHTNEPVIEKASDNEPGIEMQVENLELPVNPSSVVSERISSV

5-HT7 receptors = 5-HT7 receptors (Homo sapiens, UniProt P34969); assay: Binding selectivity for 5-HT6 relative to the 5-HT7 receptor; details: selectivity 5-HT6 over 5-HT7
5-HT7 receptors, sequence (P34969 whole entry): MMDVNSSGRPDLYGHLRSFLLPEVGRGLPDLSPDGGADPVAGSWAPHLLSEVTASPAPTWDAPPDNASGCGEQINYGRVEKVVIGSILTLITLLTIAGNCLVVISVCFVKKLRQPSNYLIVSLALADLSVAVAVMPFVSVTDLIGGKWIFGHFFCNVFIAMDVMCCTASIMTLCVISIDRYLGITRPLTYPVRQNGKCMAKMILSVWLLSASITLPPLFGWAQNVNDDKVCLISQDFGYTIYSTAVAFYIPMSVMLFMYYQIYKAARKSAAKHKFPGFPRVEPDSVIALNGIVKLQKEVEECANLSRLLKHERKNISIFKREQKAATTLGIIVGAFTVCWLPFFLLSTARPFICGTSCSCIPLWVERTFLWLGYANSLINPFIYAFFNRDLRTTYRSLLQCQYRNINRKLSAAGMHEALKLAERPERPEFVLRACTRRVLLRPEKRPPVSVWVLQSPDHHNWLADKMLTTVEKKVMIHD

T1 sequence (P50406 whole entry): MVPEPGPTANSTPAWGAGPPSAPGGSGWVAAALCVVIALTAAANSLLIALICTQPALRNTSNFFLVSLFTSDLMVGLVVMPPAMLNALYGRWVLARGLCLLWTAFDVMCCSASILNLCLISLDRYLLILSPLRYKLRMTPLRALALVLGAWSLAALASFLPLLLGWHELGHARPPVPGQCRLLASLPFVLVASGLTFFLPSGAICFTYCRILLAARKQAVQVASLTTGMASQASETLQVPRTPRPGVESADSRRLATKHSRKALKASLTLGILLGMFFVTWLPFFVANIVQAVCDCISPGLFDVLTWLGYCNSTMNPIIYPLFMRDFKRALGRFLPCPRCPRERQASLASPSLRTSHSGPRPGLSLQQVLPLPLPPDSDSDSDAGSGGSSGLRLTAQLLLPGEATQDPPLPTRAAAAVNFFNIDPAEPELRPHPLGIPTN

| Compound | Ki (human 5-HT6 receptor) | fold greater affinity for the human 5-HT6 receptor relative to the human 5-HT2C receptor (human 5-HT2C) | fold greater affinity for the human 5-HT6 receptor relative to the human 5-HT7 receptor (5-HT7 receptors) |
| --- | --- | --- | --- |
| CN1CC=C(c2cn(S(=O)(=O)c3cccc4ccccc34)c3c(F)cc(F)cc23)CC1 [Example 4aaa, 5,7-Difluoro-3-(1-methyl-1,2,3,6-tetrahydro-4-pyridinyl)-1-(1-naphthylsulfonyl)indole] | ≤ 5 nM |  |  |
| CN1CC=C(c2cn(S(=O)(=O)c3ccc(Cl)c([N+](=O)[O-])c3)c3ccc(F)cc23)CC1 [Example 4f, 1-(4-Chloro-3-nitrophenylsulfonyl)-5-fluoro-3-(1-methyl-1,2,3,6-tetrahydro-4-pyridinyl)indole] | ≤ 50 nM |  |  |
| Cc1ccc(S(=O)(=O)n2cc(C3=CCN(C)CC3)c3cc(C(F)(F)F)ccc32)cc1 [Example 4qq, 1-(4-Methylphenylsulfonyl)-3-(1-methyl-1,2,3,6-tetrahydro-4-pyridinyl)-5-trifluoromethylindole hydrochloride] | ≤ 50 nM |  |  |
| Cc1cc(C)c(S(=O)(=O)n2cc(C3=CCN(C)CC3)c3cc(F)ccc32)c(C)c1 [Example 4g, 5-Fluoro-3-(1-methyl-1,2,3,6-tetrahydro-4-pyridinyl)-1-(2,4,6-trimethylphenylsulfonyl)indole] | ≤ 50 nM |  |  |
| Cc1ccc(S(=O)(=O)n2cc(C3=CCN(C)CC3)c3cc(OC(F)(F)F)ccc32)cc1 [Example 4kk, 1-(4-Methylphenylsulfonyl)-3-(1-methyl-1,2,3,6-tetrahydro-4-pyridinyl)-5-trifluoromethoxyindole] | ≤ 5 nM |  |  |
| CN1CC=C(c2cn(S(=O)(=O)c3ccc(Cl)cc3)c3c(F)cc(F)cc23)CC1 [Example 4zz, 1-(4-Chlorophenylsulfonyl)-5,7-difluoro-3-(1-methyl-1,2,3,6-tetrahydro-4-pyridinyl)indole] | ≤ 5 nM |  |  |
| Cc1ccc(S(=O)(=O)n2cc(C3=CCN(C)CC3)c3cc(OC4CCCCC4)ccc32)cc1 [Example 4i, 5-Cyclohexyloxy-1-(4-methylphenylsulfonyl)-3-(1-methyl-1,2,3,6-tetrahydro-4-pyridinyl)indole] | ≤ 50 nM | ≥ 60 fold | ≥ 60 fold |
| Cc1ccc(S(=O)(=O)n2cc(C3=CCN(C)CC3)c3cc(F)cc(F)c32)cc1 [Example 4ww, 5,7-Difluoro-3-(1-methyl-1,2,3,6-tetrahydro-4-pyridinyl)-1-(4-methylphenylsulfonyl)indole] | ≤ 5 nM |  |  |
| CN1CC=C(c2cn(S(=O)(=O)c3ccc4ccccc4c3)c3ccc(F)cc23)CC1 [Example 4ff, 5-Fluoro-3-(1-methyl-1,2,3,6-tetrahydro-4-pyridinyl)-1-(2-naphthylsulfonyl)indole] |  | ≥ 60 fold | ≥ 60 fold |
| CN1CC=C(c2cn(S(=O)(=O)c3ccc(F)cc3)c3ccc(Cl)cc23)CC1 [Example 4gg, 5-Chloro-1-(4-fluorophenylsulfonyl)-3-(1-methyl-1,2,3,6-tetrahydro-4-pyridinyl)indole] | ≤ 5 nM |  |  |
| CN1CC=C(c2cn(S(=O)(=O)c3ccc(F)cc3)c3cc(Br)ccc23)CC1 [Example 4k, 6-Bromo-1-(4-fluorophenylsulfonyl)-3-(1-methyl-1,2,3,6-tetrahydro-4-pyridinyl)-indole] | ≤ 50 nM |  |  |
| CN1CC=C(c2cn(S(=O)(=O)c3ccccc3)c3ccccc23)CC1 [Example 4a, 3-(1-Methyl-1,2,3,6-tetrahydro-4-pyridinyl)-1-phenylsulfonylindole] | ≤ 5 nM |  |  |
| CN1CC=C(c2cn(S(=O)(=O)c3cc(Cl)ccc3Cl)c3ccc(F)cc23)CC1 [Example 4e, 5-Fluoro-1-(2,5-dichlorophenylsulfonyl)-3-(1-methyl-1,2,3,6-tetrahydro-4-pyridinyl)indole] | ≤ 50 nM |  |  |
| COc1ccc(S(=O)(=O)n2cc(C3=CCN(C)CC3)c3ccccc32)cc1 [Example 4b, 1-(4-Methoxyphenylsulfonyl)-3-(1-methyl-1,2,3,6-tetrahydro-4-pyridinyl)indole] | ≤ 50 nM |  |  |
| CN1CC=C(c2cn(S(=O)(=O)c3ccc(Cl)cc3)c3ccc(F)cc23)CC1 [Example 4bb, 1-(4-Chlorophenylsulfonyl)-5-fluoro-3-(1-methyl-1,2,3,6-tetrahydro-4-pyridinyl)indole] | ≤ 5 nM | ≥ 60 fold | ≥ 60 fold |
| CN1CC=C(c2cn(S(=O)(=O)c3ccc(F)cc3)c3ccccc23)CC1 [Example 4c, 1-(4-Fluorophenylsulfonyl)-3-(1-methyl-1,2,3,6-tetrahydro-4-pyridinyl)indole] | ≤ 5 nM |  |  |
| CN1CC=C(c2cn(S(=O)(=O)c3cccc4ccccc34)c3ccc(F)cc23)CC1 [Example 4ee, 5-Fluoro-3-(1-methyl-1,2,3,6-tetrahydro-4-pyridinyl)-1-(1-naphthylsulfonyl)indole] | ≤ 5 nM |  |  |
| CN1CC=C(c2cn(S(=O)(=O)c3ccccc3Br)c3ccc(F)cc23)CC1 [Example 4z, 1-(2-Bromophenylsulfonyl)-5-fluoro-3-(1-methyl-1,2.3,6-tetrahydro-4-pyridinyl)indole] | ≤ 5 nM | ≥ 60 fold | ≥ 60 fold |
| CN1CC=C(c2cn(S(=O)(=O)c3ccc(Cl)cc3)c3ccc(OC(F)(F)F)cc23)CC1 [Example 4jj, 1-(4-Chlorophenylsulfonyl)-3-(1-methyl-1,2,3,6-tetrahydro-4-pyridinyl)-5-trifluoromethoxyindole] | ≤ 5 nM |  |  |
| Cc1ccc(S(=O)(=O)n2cc(C3=CCN(C)CC3)c3cc(F)ccc32)cc1 [Example 3b, 5-Fluoro-1-(4-methylphenylsulfonyl)-3-(1-methyl-1,2,3,6-tetrahydro-4-pyridinyl)indole] | ≤ 5 nM | ≥ 60 fold | ≥ 60 fold |
| CN1CC=C(c2cn(S(=O)(=O)c3ccc(Br)cc3)c3ccc(F)cc23)CC1 [Example 4d, 1-(4-Bromophenylsulfonyl)-5-fluoro-3-(1-methyl-1,2,3,6-tetrahydro-4-pyridinyl)indole] | ≤ 50 nM |  |  |
